# Measured values reported in patent US11192890B2, “FGFR kinase inhibitors and pharmaceutical uses” (AUCKLAND UNISERVICES LIMITED, priority 2017, dated 2021).
# “And” between values parts separate entries of the source, which are not always exact repeats. Identical values can stand only once. Like-named read-outs stand apart in the source and are kept apart here.
# How the values were obtained:
# [1] = tested on: FGFR3 in SW780 cells (phospho-ERK1/2); assay: Drug washout Western blot assay, SW780 cells; format: cell-based; conditions: for exposure concentration for irreversible inhibition (fully covalently bind the target) in cells: SW780 (FGFR3), 30 minute exposure; for inhibition of phosphorylation of ERK1/2, no washout / phospho-ERK1/2 after extensive drug washout / reversible or irreversible inhibition of FGFR3 in cells: SW780; for inhibition of phosphorylation of ERK1/2, no washout / phospho-ERK1/2 after extensive drug washout: 30 min; for inhibition of phosphorylation of ERK1/2, no washout: then FGF-stimulation; for phospho-ERK1/2 after extensive drug washout: washout prior to FGF-stimulation; for reversible or irreversible inhibition of FGFR3 in cells: with and without washout
# [2] = tested on: FGFR1-amplified H520 non-small cell lung cancer cells; assay: Cell proliferation assay (SRB); format: cell-based; conditions: Homo sapiens, NCI-H520, 168 h, read-out: Cellular Anti-proliferative IC50, H520
# [3] = tested on: FGFR2-amplified SUM52 breast cancer cells; assay: Cell proliferation assay (SRB); format: cell-based; conditions: SUM52, 120 h, read-out: Cellular Anti-proliferative IC50, SUM52, 5 days drug exposure
# [4] = tested on: FGFR4-amplified Hep3B hepatocellular carcinoma cells; assay: Cell proliferation assay (SRB); format: cell-based; conditions: Homo sapiens, Hep3B; read-out: Cellular Anti-proliferative IC50, Hep3B
# [5] = target: T1, recombinant FGFR1 (C584S) kinase domain (Homo sapiens, UniProt P11362, C584S); assay: FGFR1 (C584S) covalent binding protein mass spectrometry assay; conditions: protein:inhibitor 1:10, 37° C.
# T1 construct: made in house; host or cells: pETDuet vector, IPTG induction in Terrific Broth (bacterial)
# Method: The previously cloned C488A/C584S FGFR1 construct was modified by site-directed mutagenesis to provide a gene encoding the C584S FGFR1 kinase domain with the cysteine at amino acid C488 reinstated. Expression and purification of this protein followed the protocol described above but with the addition of 10% glycerol to all buffers and a change of buffer pH to a value of 8.5. Protein for mass spectrometry was concentrated to ˜40 mg/ml and was mixed 1:1 (v/v) with glycerol, and then frozen at −20° C. or flash cooled in liquid nitrogen and stored at −80° C. until needed.
# Protein samples were buffer exchanged to remove glycerol (the final buffer comprised 20 mM Tris-HCl pH 8.5, 10% (v/v) glycerol, 20 mM NaCl, 5 mM EDTA, 2 mM TCEP) and were mixed with each inhibitor at 1:10 molar ratio (protein:inhibitor). Final protein concentration was 20 μM. […] Samples were mixed with 90 μL of 0.1% formic acid to quench the reaction followed by flash cooling in liquid nitrogen. Samples were stored at −80° C. until needed. All experiments were carried out in triplicate.
# Samples were subjected to liquid chromatography mass spectrometry (LC-MS) to show mass changes attributable to irreversible inhibition. Mass spectrometry experiments were performed at the University of Auckland Mass Spectrometry Center using an electropspray QSTAR® XL ESI quadrupole Time-of-Flight (QToF) MS system (Applied Biosystems) operated in positive ionization mode. The instrument was calibrated using Renin Substrate Standard (SCIEX), over the m/z range 100-2000. Protein/inhibitor samples were thawed and 2 μL volumes injected into a liquid chromatography (LC) BIOshell™ A400 Protein C4 HPLC column (10 cm×2.1 mm, 3.4 μm) attached to the mass spectrometer. […] Following elution, samples were directly injected into the mass spectrometer for separation and mass analysis. Mass spectrometry data were processed and analysed using the PeakView™ 2.1 software and the Bio Tool Kit plug-in (SCIEX) and covered an m/z range of 330-1600. Deconvolution calculations allowed visualisation of intact mass protein peaks and allowed peak area measurement to assess the percentage of protein covalently modified by each inhibitor at each time point. Data was plotted using GraphPad Prism 7 (GraphPad).
# [6] = tested on: FGFR3-amplified SW780 bladder cancer cells; assay: Cell proliferation assay (SRB); conditions: Homo sapiens, SW780, 120 h
# [7] = target: T2, FGFR3 (Homo sapiens, UniProt P22607); assay: Isolated enzyme FRET-based Z-Lyte kinase inhibition assay; format: biochemical; conditions: means from 3 independent experiments; read-out: Isolate Enzyme Inhibition IC50, FGFR3
# T2 construct: purchased Invitrogen
# Method: (§1) FGFR1-4 and the Z-Lyte Kinase Assay Kit were purchased from Invitrogen. The concentration gradients from 5.1×10^−11 to 1.0×10^−6 mol/L were used for all the test compounds. The experiments were performed according to the instructions of the manufacturer.
# (§2) FGFR1-4 isolated enzyme activity was determined using the FRET-based Z-Lyte kinase inhibition assay. The data are the means from 3 independent experiments.
# [8] = target: T3, FGFR4 (Homo sapiens, UniProt P22455); assay: as above; format: biochemical; conditions: means from 3 independent experiments; read-out: Isolate Enzyme Inhibition IC50, FGFR4
# T3 construct: purchased Invitrogen
# Method: as §1, §2
# [9] = target: T4, FGFR2 (Homo sapiens, UniProt P21802); assay: as above; format: biochemical; conditions: means from 3 independent experiments; read-out: Isolate Enzyme Inhibition IC50, FGFR2
# T4 construct: purchased Invitrogen
# Method: as §1, §2
# [10] = target: T5, FGFR1 (Homo sapiens, UniProt P11362); assay: as above; format: biochemical; conditions: means from 3 independent experiments; read-out: Isolate Enzyme Inhibition IC50, FGFR1
# T5 construct: purchased Invitrogen
# Method: as §1, §2
# [11] = tested on: FGFR2 in SUM52 cells (phospho-ERK1/2); assay: Drug washout Western blot assay, SUM52 cells; format: cell-based; conditions: for exposure concentration for irreversible inhibition (fully covalently bind the target) in cells: SUM52 (FGFR2), 30 minute exposure; for inhibition of phosphorylation of ERK1/2, no washout / phospho-ERK1/2 after extensive drug washout: 30 min; for inhibition of phosphorylation of ERK1/2, no washout: then FGF-stimulation; for phospho-ERK1/2 after extensive drug washout: washout prior to FGF-stimulation
# Method: Cells were seeded on the day prior to drug treatment (1 million cells/well; 6-well plate).
# Drug stocks were prepared in media using 1 mM or 10 mM DMSO stock solutions. Media was aspirated from each well and replaced with 2 ml of drug-free media for control wells or 2 ml of diluted drug for treated wells. Cells were exposed to drug for 30 min. Recombinant FGF (50 ng/well) was added to each well 15 minutes prior to the end of the drug exposure and protein was extracted as below.
# Cells were exposed to drug for 30 min as above. Media was aspirated and each well was washed with 5 ml drug-free media. The wash media was aspirated and replaced with 2 ml drug-free media and cells incubated for a further 30 minutes, after which the wash protocol was repeated. Cells were incubated for a further 90 minutes in drug-free media. Recombinant FGF (50 ng/well) was added to each well 15 minutes prior to the end of the drug-free incubation and protein was extracted as below.
# Cell lysates were prepared in 250 μL of RIPA lysis buffer containing protease inhibitor (1:100). After incubation on ice (30 min) and centrifugation (13,000 rpm, 5 min, 4° C.) the supernatants containing the proteins were stored (−20° C.) until required. Bicinchoninic acid (BCA) assay was used to determine the protein concentration of individual cell lysate samples.
# [12] = tested on: FGFR1 in H520 cells (phospho-ERK1/2); assay: Drug washout Western blot assay, H520 cells; format: cell-based; conditions: for exposure concentration for irreversible inhibition (fully covalently bind the target) in cells: H520 (FGFR1), 30 minute exposure; for inhibition of phosphorylation of ERK1/2, no washout / phospho-ERK1/2 after extensive drug washout: 30 min; for inhibition of phosphorylation of ERK1/2, no washout: then FGF-stimulation; for phospho-ERK1/2 after extensive drug washout: washout prior to FGF-stimulation; for reversible or irreversible inhibition of FGFR1 in cells: with and without washout
# [13] = tested on: panel of 456 kinases; assay: Biochemical kinase selectivity screening (DiscoveRx KINOMEscan); format: binding
# [14] = tested on: SUM52 cells; assay: Oxic and anoxic anti-proliferative activity of the prodrugs; conditions: read-out: Cellular Anti-proliferative IC50, SUM52, Oxic; oxic conditions
# [15] = tested on: H520 cells; assay: Oxic and anoxic anti-proliferative activity of the prodrugs; conditions: read-out: Cellular Anti-proliferative IC50, H520, Oxic; oxic conditions
# [16] = Pulse radiolysis of prodrugs; format: physicochemical
# [17] = tested on: SW780 cells; assay: Oxic and anoxic anti-proliferative activity of the prodrugs; format: cell-based; conditions: Homo sapiens, SW780; oxic conditions; read-out: Cellular Anti-proliferative IC50, SW780, Oxic
# [18] = read-out: Cellular Anti-proliferative IC50, SW780
# [19] = H520, 2 hours exposure, 100, 300 and 600 nM
# T3 sequence (P22455 22-802): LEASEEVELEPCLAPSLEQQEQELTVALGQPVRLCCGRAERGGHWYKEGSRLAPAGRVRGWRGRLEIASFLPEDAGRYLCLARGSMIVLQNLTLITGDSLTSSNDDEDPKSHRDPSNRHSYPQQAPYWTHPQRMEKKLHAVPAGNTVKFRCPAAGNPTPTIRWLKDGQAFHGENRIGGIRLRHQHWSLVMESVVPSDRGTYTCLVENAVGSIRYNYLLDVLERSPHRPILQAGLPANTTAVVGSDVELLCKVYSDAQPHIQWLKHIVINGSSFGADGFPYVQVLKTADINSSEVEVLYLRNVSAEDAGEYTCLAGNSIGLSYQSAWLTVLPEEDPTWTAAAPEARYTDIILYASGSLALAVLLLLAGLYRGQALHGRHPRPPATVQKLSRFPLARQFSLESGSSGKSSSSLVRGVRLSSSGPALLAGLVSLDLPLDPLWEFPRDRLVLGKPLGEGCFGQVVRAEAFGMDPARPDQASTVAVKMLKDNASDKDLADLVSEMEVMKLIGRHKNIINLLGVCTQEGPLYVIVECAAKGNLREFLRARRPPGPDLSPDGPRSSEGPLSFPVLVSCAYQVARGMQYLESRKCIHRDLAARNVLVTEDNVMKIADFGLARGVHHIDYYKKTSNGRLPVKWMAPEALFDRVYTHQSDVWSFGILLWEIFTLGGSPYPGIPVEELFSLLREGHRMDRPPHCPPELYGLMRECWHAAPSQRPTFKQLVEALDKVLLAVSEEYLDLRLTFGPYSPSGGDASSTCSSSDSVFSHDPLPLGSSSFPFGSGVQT
# T4 sequence (P21802 22-821): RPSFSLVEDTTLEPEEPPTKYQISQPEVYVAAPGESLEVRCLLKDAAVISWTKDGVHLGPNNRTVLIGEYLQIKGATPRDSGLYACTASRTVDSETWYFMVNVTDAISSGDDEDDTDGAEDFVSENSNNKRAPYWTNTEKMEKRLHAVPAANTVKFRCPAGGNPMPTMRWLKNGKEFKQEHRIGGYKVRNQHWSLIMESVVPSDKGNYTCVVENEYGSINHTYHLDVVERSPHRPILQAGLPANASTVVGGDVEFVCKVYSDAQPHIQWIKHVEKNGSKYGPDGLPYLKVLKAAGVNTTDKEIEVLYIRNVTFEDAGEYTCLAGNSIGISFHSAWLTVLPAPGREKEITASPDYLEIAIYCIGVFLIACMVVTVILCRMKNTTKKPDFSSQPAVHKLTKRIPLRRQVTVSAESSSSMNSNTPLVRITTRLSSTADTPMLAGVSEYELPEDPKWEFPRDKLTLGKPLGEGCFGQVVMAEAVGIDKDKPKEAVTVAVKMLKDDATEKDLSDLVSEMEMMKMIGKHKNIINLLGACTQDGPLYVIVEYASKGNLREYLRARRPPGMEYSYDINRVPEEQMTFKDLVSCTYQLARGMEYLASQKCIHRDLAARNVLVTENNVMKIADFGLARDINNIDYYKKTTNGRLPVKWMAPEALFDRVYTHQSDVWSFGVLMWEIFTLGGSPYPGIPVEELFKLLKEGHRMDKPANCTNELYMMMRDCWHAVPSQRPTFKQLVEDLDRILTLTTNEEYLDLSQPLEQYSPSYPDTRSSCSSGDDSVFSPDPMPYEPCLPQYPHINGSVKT
# T2 sequence (P22607 23-806): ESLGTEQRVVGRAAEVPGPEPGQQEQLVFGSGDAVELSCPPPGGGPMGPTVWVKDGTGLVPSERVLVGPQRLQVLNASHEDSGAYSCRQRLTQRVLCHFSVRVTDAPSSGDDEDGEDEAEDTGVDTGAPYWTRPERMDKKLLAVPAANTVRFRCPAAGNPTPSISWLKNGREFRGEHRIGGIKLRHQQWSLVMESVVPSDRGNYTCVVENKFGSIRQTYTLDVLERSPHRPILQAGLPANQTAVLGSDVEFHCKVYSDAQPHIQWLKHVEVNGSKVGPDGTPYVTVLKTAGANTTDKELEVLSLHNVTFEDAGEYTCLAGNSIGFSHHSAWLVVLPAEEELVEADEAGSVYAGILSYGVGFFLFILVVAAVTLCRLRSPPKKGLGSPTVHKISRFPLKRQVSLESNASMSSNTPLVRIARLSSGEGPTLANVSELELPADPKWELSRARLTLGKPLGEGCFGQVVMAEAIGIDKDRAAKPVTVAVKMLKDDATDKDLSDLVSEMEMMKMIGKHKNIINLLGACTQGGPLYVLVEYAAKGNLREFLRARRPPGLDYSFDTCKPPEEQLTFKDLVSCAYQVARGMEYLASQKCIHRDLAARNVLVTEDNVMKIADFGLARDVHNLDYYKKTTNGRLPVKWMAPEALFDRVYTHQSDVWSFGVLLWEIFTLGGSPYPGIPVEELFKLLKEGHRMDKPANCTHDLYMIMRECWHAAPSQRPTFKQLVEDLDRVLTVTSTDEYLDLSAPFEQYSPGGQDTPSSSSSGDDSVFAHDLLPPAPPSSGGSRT
# T1 sequence (P11362 with tags, fused parts or gaps C584S): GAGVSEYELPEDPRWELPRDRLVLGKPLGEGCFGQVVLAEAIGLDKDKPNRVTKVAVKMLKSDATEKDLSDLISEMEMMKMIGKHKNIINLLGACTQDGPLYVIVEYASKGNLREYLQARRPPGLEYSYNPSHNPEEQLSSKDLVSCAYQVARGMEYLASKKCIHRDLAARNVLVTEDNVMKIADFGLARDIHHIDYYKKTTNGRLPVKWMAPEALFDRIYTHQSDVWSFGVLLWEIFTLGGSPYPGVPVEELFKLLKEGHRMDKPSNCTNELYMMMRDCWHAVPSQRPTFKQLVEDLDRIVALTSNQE
# T5 sequence (P11362 22-822): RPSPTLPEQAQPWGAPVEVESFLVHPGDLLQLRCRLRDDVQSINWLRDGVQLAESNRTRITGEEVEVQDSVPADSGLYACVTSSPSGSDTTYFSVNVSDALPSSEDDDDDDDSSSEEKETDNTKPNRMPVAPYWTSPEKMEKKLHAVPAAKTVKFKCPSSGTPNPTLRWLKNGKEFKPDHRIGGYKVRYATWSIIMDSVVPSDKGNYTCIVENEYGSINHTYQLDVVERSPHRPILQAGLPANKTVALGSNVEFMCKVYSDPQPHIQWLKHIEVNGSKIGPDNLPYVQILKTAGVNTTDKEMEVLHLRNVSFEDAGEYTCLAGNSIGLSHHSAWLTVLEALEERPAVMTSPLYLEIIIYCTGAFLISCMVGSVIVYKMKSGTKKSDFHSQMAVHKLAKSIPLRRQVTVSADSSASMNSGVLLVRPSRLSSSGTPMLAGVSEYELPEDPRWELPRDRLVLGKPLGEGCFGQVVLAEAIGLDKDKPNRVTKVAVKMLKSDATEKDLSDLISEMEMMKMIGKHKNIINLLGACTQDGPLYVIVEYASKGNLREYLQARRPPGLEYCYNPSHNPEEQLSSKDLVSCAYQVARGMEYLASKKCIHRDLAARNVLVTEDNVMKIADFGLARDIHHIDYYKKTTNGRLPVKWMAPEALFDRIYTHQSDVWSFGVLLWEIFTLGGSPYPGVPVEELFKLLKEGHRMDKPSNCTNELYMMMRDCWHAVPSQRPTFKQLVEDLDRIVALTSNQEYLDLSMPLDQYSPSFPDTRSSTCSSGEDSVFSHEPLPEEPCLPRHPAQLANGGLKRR
Compound,exposure concentration for irreversible inhibition (fully covalently bind the target) in cells [1],"inhibition of phosphorylation of ERK1/2, no washout ([1]; 100 nM)",phospho-ERK1/2 after extensive drug washout ([1]; 100 nM),phospho-ERK1/2 after extensive drug washout ([1]; 1000 nM),IC50 [2],IC50 [3],IC50 [4],% Conversion to FGFR1 (C584S) covalent adduct after 120 minutes incubation [5],"IC50 [6, 18]",IC50 [7],IC50 [8],IC50 [9],IC50 [10],exposure concentration for irreversible inhibition (fully covalently bind the target) in cells [11],"inhibition of phosphorylation of ERK1/2, no washout ([11]; SUM52, 100 nM)","phospho-ERK1/2 after extensive drug washout ([11]; SUM52, 100 nM)","phospho-ERK1/2 after extensive drug washout ([11]; SUM52, 1000 nM)",exposure concentration for irreversible inhibition (fully covalently bind the target) in cells [12],"inhibition of phosphorylation of ERK1/2, no washout ([12]; H520, 100 nM)","phospho-ERK1/2 after extensive drug washout ([12]; H520, 100 nM)",other results
"COc1cc(OC)c(Cl)c(N2Cc3cnc(NC4CCCCC4)nc3N([C@H]3CCN(C(=O)/C=C/CN(C)C)C3)C2=O)c1Cl [Compound 105, (S,E)-7-(cyclohexylamino)-3-(2,6-dichloro-3,5-dimethoxyphenyl)-1-(1-(4-(dimethylamino)but-2-enoyl)pyrrolidin-3-yl)-3,4-dihydropyrimido[4,5-d]pyrimidin-2(1H)-one]",1000 nM,complete inhibition,fully restored,essential full inhibition,68 nM,2.1 nM,80 nM,8%,4 nM,33 nM,729 nM,16 nM,1.2 nM,1000 nM,complete inhibition,remained inhibited,essential full inhibition,1000 nM,complete inhibition,partially inhibited,"phospho-ERK1/2 after extensive drug washout ([12]; H520, 1000 nM): essential full inhibition"
"COc1cc(OC)c(Cl)c(N2Cc3cnc(Nc4ccccc4)nc3N([C@H]3CCN(C(=O)/C=C/CN(C)C)C3)C2=O)c1Cl [Compound 106, (S,E)-3-(2,6-dichloro-3,5-dimethoxyphenyl)-1-(1-(4-(dimethylamino)but-2-enoyl)pyrrolidin-3-yl)-7-(phenylamino)-3,4-dihydropyrimido[4,5-d]pyrimidin-2(1H)-one]",100 nM,complete inhibition,fully inhibited,essential full inhibition,11 nM,0.5 nM,5.5 nM,11%,5 nM,17 nM,< 100 nM and 94 nM,26 nM,1.1 nM,100 nM,complete inhibition,fully inhibited,essential full inhibition,100 nM,complete inhibition,fully inhibited,"reversible or irreversible inhibition of FGFR3 in cells ([1]; 30 min exposure, 100 nM): potent irreversible inhibitor; reversible or irreversible inhibition of FGFR3 in cells ([1]; 120 minutes exposure, 100 nM): irreversible; reversible or irreversible inhibition of FGFR2 in cells ([11]; SUM52, 30 min exposure, 100 nM, with and without washout): potent irreversible inhibitor; phospho-ERK1/2 after extensive drug washout ([12]; H520, 1000 nM): essential full inhibition; reversible or irreversible inhibition of FGFR1 in cells ([12]; H520, 30 min exposure, 100 nM): potent irreversible inhibitor"
"COc1cc(OC)c(Cl)c(N2Cc3cnc(Nc4ccc(F)cc4)nc3N(C3CCN(C(=O)/C=C/CN(C)C)CC3)C2=O)c1Cl [Compound 120, (E)-3-(2,6-dichloro-3,5-dimethoxyphenyl)-1-(1-(4-(dimethylamino)but-2-enoyl)piperidin-4-yl)-7-((4-fluorophenyl)amino)-3,4-dihydropyrimido[4,5-d]pyrimidin-2(1H)-one]",–,–,–,–,8.7 nM,0.8 nM,–,–,–,–,–,–,–,–,–,–,–,–,–,–,"share of the non-mutant kinases studied with Percent Control <35 ([13]; 1 uM, 33/403 kinases): 8.2%; selectivity for the FGFR family ([13]; panel of 456 kinases): excellent selectivity; S(35) selectivity score ([13]; set concentration of 1 uM): 0.082; IC50 ([6]; read-out: Cellular Anti-proliferative IC50, SW780, 5 days drug exposure): 16 nM; reversible or irreversible inhibition of FGFR1 in cells [12, 19]: potent, irreversible inhibition"
"CNc1ncc2c(n1)N([C@H]1CCN(C(=O)/C=C/C[N+](C)(C)Cc3c([N+](=O)[O-])ncn3C)C1)C(=O)N(c1c(Cl)c(OC)cc(OC)c1Cl)C2.[Br-] [Compound 200, (S,E)-4-(3-(3-(2,6-dichloro-3,5-dimethoxyphenyl)-7-(methylamino)-2-oxo-3,4-dihydropyrimido[4,5-d]pyrimidin-1(2H)-yl)pyrrolidin-1-yl)-N,N-dimethyl-N-((1-methyl-4-nitro-1H-imidazol-5-yl)methyl)-4-oxobut-2-en-1-aminium bromide]",–,–,–,–,–,–,–,–,–,–,–,–,–,–,–,–,–,–,–,–,"IC50 [14]: 229 nM; melting point: 195 to 198 °C; IC50 [15]: 3.67 µM; first order rate of fragmentation kfrag [16]: 32 s⁻¹; IC50 [17]: 2640 nM; reversible or irreversible inhibition of FGFR1 in cells [12, 19]: reversible inhibitor; concentration required to suppress FGFR1 signalling through phospho-ERK1/2 ([12]; H520, 2 hours exposure, tested at 100, 300 and 600 nM): 300 nM"
